{"source": "patent US20240197762A1", "about": "“NUTRITIONAL COMPOSITION FOR STIMULATIONG BIFIDOBACTERIA” (FrieslandCampina Nederland B.V., priority 2021, published 2024)", "system": "bifidobacteria (B. adolescentis and B. longum)", "assay": "Fecal fermentations simulating the distal colon of elderly (microMatrix, shotgun metagenomics)", "assay_type": "cell-based, human (pool of fecal material of healthy 70+ human subjects)", "conditions": "oligosaccharides at 0.5 wt % final concentration, 7 hours of fermentation, pH 6.8, 37° C., compared to the blanc; FIG. 1", "experimental": "Fecal fermentations were performed in a 24 well plate using the microMatrix™ (Applikon Biotechnology) as described in M. M. O'Donnell et al., Front. Microbiol., vol. 9, Aug. 10, 2018, article 1844. The wells were filled in the anaerobic chamber with medium (composition: see Table 1) to which the oligosaccharides GOS (Biotis™ GOS ex-FrieslandCampina), 2′-FL (Aequival™ 2′-FL, ex-FrieslandCampina), or mixtures thereof were added at a final concentration of 0 (blanc) or 0.5 wt % (every condition in duplicate). The plate was put in the microMatrix™ for about 20 minutes to reduce the dissolved oxygen concentration to below 5% and to increase the temperature of the medium to 37° C. After these 20 minutes, the plate was inoculated with a pool of fecal material of healthy 70+ human subjects and fermentations were started. During the fermentations, the pH of was controlled at pH 6.8 with a dead zone of 0.1 using ammonium gas and CO2. The plates were orbitally shaken at 300 rpm. Mixed gas (CO2/H2/N2: 10/5/85) was used to keep the cultures anaerobic during fermentation. After 7 hours of fermentation a sample of 1 ml was taken. Fecal samples of eight healthy elderly were included in the pool. […]"}
{"substance": "2′-fucosyllactose [2′-FL]", "values": [{"measurement": "relative abundance of B. adolescentis and B. longum and their combined amount, relative to total bacteria content", "result": "increased"}]}
